Measured values: patent US20250195445A1, “LONG-LASTING ANTIMICROBIAL COMPOSITIONS CONTAINING CATIONIC ACTIVE AGENTS AND ANIONIC EXCIPIENTS AND USES” (priority 2022, published 2025)

Assay: isothermal nanotitration calorimetry, interaction with beta-cyclodextrin
Assay type: physicochemical
Conditions: for strength of interaction with beta-cyclodextrin: adimensional values
From the text: In adimensional values: 1000×10^6 and 737×10^6, respectively (Table 6). [table]

| Compound | strength of interaction with beta-cyclodextrin | interaction with beta-cyclodextrin relative to interaction of sodium lauryl sulfate with beta-cyclodextrin (calorimetric analyses) |
| --- | --- | --- |
| N=C(NCCCCCCNC(=N)NC(=N)Nc1ccc(Cl)cc1)NC(=N)Nc1ccc(Cl)cc1 [chlorhexidine digluconate, 1,1′-hexamethylene bis(5-(p-chlorophenyl)biguanide)] | 1000×10^6 | about 1000 times |
| CCCCCCCCCCCCOS(=O)(=O)[O-].[Na+] [sodium lauryl sulfate] | 737×10^6 | – |
